Measurements: US20080207622A1, “SOLUBLE EPOXIDE HYDROLASE INHIBITORS” (Arete Therapeutics, Inc., priority 2006, published 2008)

Experiments:
[1] = system: soluble epoxide hydrolase (sEH); assay: Fluorescent assay for mouse and human soluble epoxide hydrolase (CMNPC substrate); assay type: biochemical
Source text: Fluorescent Assay for Mouse and Human Soluble Epoxide Hydrolase
Recombinant mouse sEH (MsEH) and human sEH (HsEH) were produced in a baculovirus expression system as previously reported. Grant et al., J. Biol. Chem., 268:17628-17633 (1993); Beetham et al., Arch. Biochem. Biophys., 305:197-201 (1993). The expressed proteins were purified from cell lysate by affinity chromatography. Wixtrom et al., Anal. Biochem., 169:71-80 (1988). Protein concentration was quantified using the Pierce BCA assay using bovine serum albumin as the calibrating standard. The preparations were at least 97% pure as judged by SDS-PAGE and scanning densitometry. They contained no detectable esterase or glutathione transferase activity which can interfere with the assay. The assay was also evaluated with similar results in crude cell lysates or homogenate of tissues.
The IC50s for each inhibitor were determined according to the following procedure:
Cyano(2-methoxynaphthalen-6-yl)methyl (3-phenyloxiran-2-yl)methyl carbonate (CMNPC; Jones P. D. et. al.; Analytical Biochemistry 2005; 343: pp. 66-75)
Bis/Tris HCl 25 mM pH 7.0 containing 0.1 mg/mL of BSA (buffer A) CMNPC at 0.25 mM in DMSO.
Mother solution of enzyme in buffer A (Mouse sEH at 6 μg/mL and Human sEH at 5 μg/mL).
Inhibitor dissolved in DMSO at the appropriate concentration.
In a black 96 well plate, fill all the wells with 150 μL of buffer A.
Add 2 μL of DMSO in well A2 and A3, and then add 2 μL of inhibitor solution in A1 and A4 through A12.
Add 150 μL of buffer A in row A, then mix several time and transfer 150 μL to row B. Repeat this operation up to row H. The 150 μL removed from row H is discarded.
Add 20 μL of buffer A in column 1 and 2, then add 20 μL of enzyme solution to column 3 to 12.
Incubate the plate for 5 minutes in the plate reader at 30° C.
During incubation prepare the working solution of substrate by mixing 3.68 mL of buffer A (4×0.920 mL) with 266 μL (2×133 μL) of substrate solution).
At t=0, add 30 μL of working substrate solution with multi-channel pipette labeled “Briggs 303” and start the reading ([S]final: 5 μM).
Read with ex: 330 nm (20 nm) and em: 465 nm (20 nm) every 30 second for 10 minutes. The velocities are used to analyze and calculate the IC50s.

Row | SMILES | % Inhibition ([1]; Conc. 50 nM) | further results
1 | O=C(Nc1ccc(C(F)(F)F)cc1)Nc1ccc(S(=O)(=O)c2ccccc2)cc1 [Compound 1, 1-(4-Benzenesulfonyl-phenyl)-3-(4-trifluoromethyl-phenyl)-urea] | 92% | –
2 | CS(=O)(=O)c1ccc(NC(=O)Nc2ccc(C(F)(F)F)cc2)cc1 [Compound 2, 1-(4-Methanesulfonyl-phenyl)-3-(4-trifluoromethyl-phenyl)-urea] | 79% | –
3 | CS(=O)(=O)c1cccc(NC(=O)Nc2ccc(C(F)(F)F)cc2)c1 [Compound 3, 1-(3-Methanesulfonyl-phenyl)-3-(4-trifluoromethyl-phenyl)-urea] | 88% | –
4 | O=C(Nc1ccccc1)Nc1cccc(S(=O)(=O)CCCN2CCOCC2)c1 [Compound 4, 1-[3-(3-Morpholin-4-yl-propane-1-sulfonyl)-phenyl]-3-phenyl-urea] | – | % Inhibition ([1]; Conc. 500 nM): 74%
5 | COc1ccc(S(=O)(=O)c2ccc(NC(=O)NC34CC5CC(CC(C5)C3)C4)cc2)nn1 [Compound 10, 1-Adamantan-1-yl-3-[4-(6-methoxy-pyridazine-3-sulfonyl)-phenyl]-urea] | – | % Inhibition ([1]; Conc. 2000 nM): 100%; melting point: 252 to 254 °C
